Reference: patent publication US7943628B2, “Pyrimidine derivatives” (Pfizer Limited, priority 2005, dated 2011)

Key:
histamine H4 receptor [1] = biological target: T1, histamine H4 receptor (Homo sapiens, UniProt Q9H3N8); experiment: H4 binding, method 1 ([3H]-histamine filtration binding on CHO cell membranes); settings: H4 binding, method 1; Ki calculated from IC50 (Cheng-Prussoff)
T1 construct: expressed in transfected cells; host or cells: CHO cells
Procedure, shortened: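 Membranes from CHO cells expressing human H4 receptor (20-35 μg/well) incubated 90 min at room temperature with 3 nM [3H]-histamine in 50 mM Tris-HCl pH 7.4, ± competitor. Bound label separated by filtration on PEI-soaked GF/B filters and counted by scintillation; non-specific binding with 10 μM JNJ7777120.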

histamine H4 receptor [2] = biological target: T1, histamine H4 receptor; experiment: H4 binding, method 2 ([3H]-histamine binding with Ysi WGA beads on CHO cell membranes); settings: for Ki: H4 binding, method 2, Ki calculated from IC50 (Cheng-Prussoff)
Procedure, shortened: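 Membranes from H4-expressing CHO cells were pre-bound to WGA SPA beads, then incubated 90 min at room temperature with 6.5 nM [3H]-histamine in 50 mM Tris-HCl pH 7.4, with or without competitor. Non-specific binding defined with 10 μM JNJ7777120; bound label read by scintillation counting.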

| Ki (histamine H4 receptor [2]; read-out: Method 2 (Ki (nM))) [nM] | Compound | also measured |
| --- | --- | --- |
| – | CC(C)(C)CNc1cc(N2C[C@H]3CCCN[C@H]3C2)nc(N)n1 (racemic) [Example 30, N^4-(2,2-Dimethylpropyl)-6-[(4aR*,7aR*)-octahydro-6H-pyrrolo[3,4-b]pyridin-6-yl] pyrimidine-2,4-diamine] | Ki (histamine H4 receptor [1]): 3.06 nM; Ki (histamine H4 receptor [2]; Method 2 (Ki (nM))): 19.3 nM |
| 335 | CN1CCN(c2cc(NCCC(C)(C)C)ncn2)CC1 [Example 1, N-(3,3-Dimethylbutyl)-6-(4-methylpiperazin-1-yl)pyrimidin-4-amine] | Ki (histamine H4 receptor [1]): 82.3 nM |
| 19.3 | CN[C@@H]1CCN(c2cc(NCC3CC3)nc(N)n2)C1 [Example 9, N^4-(Cyclopropylmethyl)-6-[(3R)-3-(methylamino)pyrrolidin-1-yl]pyrimidine-2,4-diamine] | Ki (histamine H4 receptor [1]): 2.7 nM |
| 31.6 | CN[C@@H]1CCN(c2cc(NCC(C)(C)C)nc(N)n2)C1 [Example 11, N^4-(2,2-Dimethylpropyl)-6-[(3R)-3-(methylamino)pyrrolidin-1-yl] pyrimidine-2,4-diamine] | Ki (histamine H4 receptor [1]): 10.6 nM |
| 635 | CN1CCN(c2cc(NC[C@@H]3CCCO3)ncn2)CC1 [Example 112, 6-(4-Methylpiperazin-1-yl)-N-[(2S)-tetrahydrofuran-2-ylmethyl]pyrimidin-4-amine] | – |
| 1480 | CN1CCN(c2cc(NC[C@H]3CCCO3)ncn2)CC1 [Example 113, 6-(4-Methylpiperazin-1-yl)-N-[(2R)-tetrahydrofuran-2-ylmethyl]pyrimidin-4-amine] | – |
| 1030 | CN1CCN(c2cc(N3CCCC3)ncn2)CC1 [Example 114, 4-(4-Methylpiperazin-1-yl)-6-pyrrolidin-1-ylpyrimidine] | – |
| 494 | CN1CCN(c2cc(NCCC(F)(F)F)ncn2)CC1 [Example 115, 6-(4-Methylpiperazin-1-yl)-N-(3,3,3-trifluoropropyl)pyrimidin-4-amine] | – |
| 1090 | CC(C)(C)CCNc1cc(N2CC(N)C2)ncn1 [Example 118, 6-(3-Aminoazetidin-1-yl)-N-(3,3-dimethylbutyl)pyrimidin-4-amine] | – |
| 537 | C[C@@H]1CN(c2cc(NCCC(C)(C)C)nc(N)n2)CCN1C [Example 124, N^4-(3,3-Dimethylbutyl)-6-[(3R)-3,4-dimethylpiperazin-1-yl]pyrimidine-2,4-diamine] | – |
| 611 | CC(C)(C)CNc1cc(N2C[C@@H]3[C@@H](N)[C@@H]3C2)nc(N)n1 [Example 126, 6-[(1R*,5S*,6s*)-6-Amino-3-azabicyclo[3.1.0]hex-3-yl]-N^4-(2,2-dimethylpropyl)pyrimidine-2,4-diamine] | – |
| – | CC(C)(C)CNc1cc(N2CCN3CCCC3C2)nc(N)n1 (centres unmarked) [Example 141, N^4-(2,2-Dimethylpropyl)-6-(hexahydropyrrolo[1,2-a]pyrazin-2(1H)-yl)pyrimidine-2,4-diamine] | Ki (histamine H4 receptor [2]; Method 2 (Ki (nM))): 4.97 nM |
| 376 | CC(C)(C)CNc1cc(N2CCC(N3CCCC3)C2)nc(N)n1 (centres unmarked) [Example 327, 6-[(3-S)-1,3′-Bipyrrolidin-1′-yl]-N^4-(2,2-dimethylpropyl)pyrimidine-2,4-diamine] | – |
| 1420 | CC(C)CCNc1cc(N[C@@H]2CCNC2)ncn1 [Example 329, N-(3-Methylbutyl)-N′-[(3R)-pyrrolidin-3-yl]pyrimidine-4,6-diamine] | – |
| 1440 | CN1CCN(c2cc(NCCC(C)(C)C)nc(N(C)C)n2)CC1 [Example 330, N^4-(3,3-Dimethylbutyl)-N^2,N^2-dimethyl-6-(4-methylpiperazin-1-yl)pyrimidine-2,4-diamine] | – |
| 2690 | CC(C)(C)CCNc1cc(N2CC[C@H](N3CCCC3)C2)nc(N)n1 [Example 332, 6-[(3′S)-1,3′-Bipyrrolidin-1′-yl]-N^4-(3,3-dimethylbutyl)pyrimidine-2,4-diamine] | – |
| 3120 | CC(C)(C)CCNc1cc(N2CC3C(N)C3C2)nc(N)n1 (stereo not drawn) [Example 333, 6-[(1R*,5S*,6s*)-6-Amino-3-azabicyclo[3.1.0]hex-3-yl]-N^4-(3,3-dimethylbutyl)pyrimidine-2,4-diamine] | – |
| 5350 | COCCNc1cc(N[C@@H]2CCNC2)ncn1 [Example 335, N-(2-Methoxyethyl)-N′-[(3R)-pyrrolidin-3-yl]pyrimidine-4,6-diamine] | – |
| 6330 | CNC1CN(c2cc(N3CCCC3)ncn2)C1 [Example 336, N-Methyl-1-(6-pyrrolidin-1-ylpyrimidin-4-yl)azetidin-3-amine] | – |
| 7220 | c1ccc(CNc2cc(N[C@@H]3CCNC3)ncn2)cc1 [Example 337, N-Benzyl-N′-[(3R)-pyrrolidin-3-yl]pyrimidine-4,6-diamine] | – |
| 7930 | CC(C)(C)CCNc1cc(N[C@H]2CCN(Cc3ccccc3)C2)nc(N)n1 [Example 338, N^4-[(3S)-1-Benzylpyrrolidin-3-yl]-N6-(3,3-dimethylbutyl)pyrimidine-2,4,6-triamine] | – |
| 9070 | CNc1nc(NCCC(C)(C)C)cc(N2CCN(C)CC2)n1 [Example 339, N^4-(3,3-Dimethylbutyl)-N^2-methyl-6-(4-methylpiperazin-1-yl)pyrimidine-2,4-diamine] | – |
| – | CC(C)(C)CCNc1cc(N2CCC(N)CC2)ncn1 [Example 340, 6-(4-Aminopiperidin-1-yl)-N-(3,3-dimethylbutyl)pyrimidin-4-amine] | Method 2, % at 40 μM (histamine H4 receptor [2]): 50% at 40 μM |
| 16300 | c1nc(NC[C@@H]2CCCO2)cc(N[C@@H]2CCNC2)n1 [Example 341, N-[(3R)-Pyrrolidin-3-yl]-N′-[(2S)-tetrahydrofuran-2-ylmethyl]pyrimidine-4,6-diamine] | – |
| – | CC(C)(C)CCNc1cc(N2CC[C@H](N3CCCC3)C2)ncn1 [Example 342, 6-[(3′S)-1,3′-Bipyrrolidin-1′-yl]-N-(3,3-dimethylbutyl)pyrimidin-4-amine] | Method 2, % at 40 μM (histamine H4 receptor [2]): 13% at 40 μM |
| – | CN1CCC(Nc2cc(NCCC(C)(C)C)ncn2)CC1 [Example 343, N-(3,3-Dimethylbutyl)-N′-(1-methylpiperidin-4-yl)pyrimidine-4,6-diamine] | Method 2, % at 40 μM (histamine H4 receptor [2]): 53% at 40 μM |
| – | COCCNc1cc(N[C@H]2CCNC2)ncn1 [Example 344, N-(2-Methoxyethyl)-N′-[(3S)-pyrrolidin-3-yl]pyrimidine-4,6-diamine] | Method 2, % at 40 μM (histamine H4 receptor [2]): 40% at 40 μM |
| – | c1nc(NC[C@H]2CCCO2)cc(N[C@@H]2CCNC2)n1 [Example 345, N-[(3R)-Pyrrolidin-3-yl]-N′-[(2R)-tetrahydrofuran-2-ylmethyl]pyrimidine-4,6-diamine] | Method 2, % at 40 μM (histamine H4 receptor [2]): 49% at 40 μM |
| 38400 | c1ccc(CCNc2cc(N[C@@H]3CCNC3)ncn2)cc1 [Example 346, N-(2-Phenylethyl)-N′-[(3R)-pyrrolidin-3-yl]pyrimidine4,6-diamine] | – |
| 301 | N-Methyl-6-[3-(methylamino)azetidin-1- yl]pyrimidin-4-amine [Example 58] | – |

| Compound | Ki (histamine H4 receptor [2]; read-out: Method 2 (Ki (nM))) [nM] | also measured |
| --- | --- | --- |
| Cc1c(NCC(C)C)ncnc1N1CCN(C)CC1 [Example 116, N-Isobutyl-5-methyl-6-(4-methylpiperazin-1-yl)pyrimidin-4-amine] | 426 | – |
| CCNc1cc(N2C[C@H]3CN(C)C[C@H]3C2)ncn1 [Example 117, N-Ethyl-6-[(3aR*,6aS*)-5-methylhexahydropyrrolo[3,4-c]pyrrol-2(1H)-yl]pyrimidin-4-amine] | 1620 | – |
| Cc1c(NC(C)C)ncnc1N1CCN(C)CC1 [Example 331, N-isoPropyl-5-methyl-6-(4-methylpiperazin-1-yl)pyrimidin-4-amine] | 2670 | – |
| CN1CCN(c2cc(N(C)CC3CC3)ncn2)CC1 [Example 334, N-(Cyclopropylmethyl)-N-methyl-6-(4-methylpiperazin-1-yl)pyrimidin-4-amine] | 5070 | – |
